Assay results taken from US20240239801A1, “PYRIMIDO[5,4,D]PYRIMIDINE COMPOUNDS, COMPOSITIONS COMPRISING THEM AND USES THEREOF” (Université de Montréal, priority 2021, published 2024).
Like-named read-outs stand apart in the source and are kept apart here.

Experiments:
Assay in all cases: Proliferation inhibition, CellTiter-Glo
Assay type in all cases: cell-based, human
[1] = system: RKO; conditions: Table D-1, 3 days, read-out: RKO Prolif. EC50
Protocol: (§1) All cancer cell lines (A375, A101D, A2058, RKO, HT29 SK-MEL 30, IPC298, HepG2, HCT-116, Lovo, SW620, SW480, NCI-H358, NCI-H2122, Calu-6, NCIH2087, NCIH1755, NCIH1666 and Mewo) were obtained from ATCC and cultured in RPMI-1640 medium (Gibco) supplemented with 5% heat inactivated fetal bovine serum (FBS, Wisent) at 37° C. under 5% CO2. Cells were maintained in T175 flasks (Greiner). They were passaged by removing the culture medium, washing once in 10 mL of room temperature Phosphate Buffered Saline (PBS; Wisent) and incubating at 37° C. with 2 mL of 0.05% Trypsin (Thermo-Fisher). Trypsin was then inactivated by adding complete growth medium and the cells were then replated in a T175 culture dish at the appropriate dilution. All cell lines were routinely tested for mycoplasma contamination. Tissue type and mutational status of each cell line can be found in Table B.
(§2) CellTiter-Glo® viability analysis was conducted on cells plated in […] of complete RPMI-1640 growth medium in 96-well flat-bottomed white opaque plates (Greiner or Corning) at a density indicated in Table E (for each CCL, number of cells plated per well of a 96-well plate to perform the CellTiter-Glo® cell viability assay). The cell density in cells/cm^2 would correspond to cell number divided by the area of one well of a 96-well plate (0.32 cm^2). Cells were maintained overnight at 37° C. under 5% CO2 before treatment with compounds' dilution series for 3 days.
(§3) In a dilution series 100 μL/well of test substance dilution prepared in complete RPMI-1640 growth media was added to the cells plated initially in 100 μL of growth media. The dilution series is selected so that ten concentrations cover a range from 30 μM or 10 μM to […]. If necessary (as in the case of A375 cells, which were more sensitive to the compounds) the initial concentration of 10 μM is lowered to 1 μM and further dilution is carried out accordingly. The final concentration of DMSO in the assay is set to 0.5%.
(§4) After 3 days of incubation, the growth media were removed by aspiration and 60 μL of diluted CellTiter-Glo® reagent (10 μL CellTiter-Glo® reagent+50 μL of PBS) was added to each well. Cells were allowed to lyse and to equilibrate in CellTiter-Glo® reagent by 5 min incubation on a plate shaker followed by 10 min incubation at room temperature. Luminescence signals were then acquired on a Synergy Neo2 plate reader (Biotek).
(§5) The effect of each compound dilution on the proliferation of cancer cell lines was expressed in % inhibition and calculated as follows. An internal 100% inhibition control (1 μM of trametinib; cat. No. HY-10999; MedChem Express; CAS No. 871700-17-3) was included in each plate and used as a measure of CellTiter-Glo® signal background. The value obtained for trametinib was subtracted from each data point. The average of DMSO (vehicle) controls (set as 0% inhibition) was established and used to calculate % inhibition:
(§6) The ability of each compound to inhibit proliferation was expressed as a EC50 value obtained by plotting the effect values for each data point of a dilution series and fitting the obtained curves using a log(agonist) versus response−variable slope (four parameters) function using GraphPadPrism (V7.0) or Dotmatics Screening Ultra platform.

[2] = system: SK-MEL30; conditions: Table D-1, 3 days, read-out: SK-MEL30 Prolif. EC50
Protocol: as §1, §2, §3, §4, §5, §6

[3] = system: Lovo; conditions: Table D-2, 3 days, read-out: Lovo Prolif. EC50
Protocol: as §1, §2, §3, §4, §5, §6

[4] = system: SW620; conditions: Table D-2, 3 days, read-out: SW620 Prolif. EC50
Protocol: as §1, §2, §3, §4, §5, §6

[5] = system: NCIH1755; conditions: Table D-2, 3 days, read-out: NCIH1755 Prolif. EC50
Protocol: as §1, §2, §3, §4, §5, §6

[6] = system: HCT116; conditions: Table D-1, 3 days, read-out: HCT116 Prolif. EC50
Protocol: as §1, §2, §3, §4, §5, §6

[7] = system: SW480; conditions: Table D-2, 3 days, read-out: SW480 Prolif. EC50
Protocol: as §1, §2, §3, §4, §5, §6

[8] = system: IPC298; conditions: Table D-1, 3 days, read-out: IPC298 Prolif. EC50
Protocol: as §1, §2, §3, §4, §5, §6

[9] = system: HepG2; conditions: Table D-1, 3 days, read-out: HepG2 Prolif. EC50
Protocol: as §1, §2, §3, §4, §5, §6

[10] = system: HT-29; conditions: Table D-1, 3 days, read-out: HT-29 Prolif. EC50
Protocol: as §1, §2, §3, §4, §5, §6

[11] = system: A375; conditions: Table D-1, 3 days, read-out: A375 Prolif. EC50
Protocol: as §1, §2, §3, §4, §5, §6

[12] = system: NCI-H2122; conditions: Table D-2, 3 days, read-out: NCI-H2122 Prolif. EC50
Protocol: as §1, §2, §3, §4, §5, §6

[13] = system: NCIH2087; conditions: Table D-2, 3 days, read-out: NCIH2087 Prolif. EC50
Protocol: as §1, §2, §3, §4, §5, §6

[14] = system: Mewo; conditions: Table D-2, 3 days, read-out: Mewo Prolif. EC50
Protocol: as §1, §2, §3, §4, §5, §6

[15] = system: Calu6; conditions: Table D-2, 3 days, read-out: Calu6 Prolif. EC50
Protocol: as §1, §2, §3, §4, §5, §6

[16] = system: NCI-H358; conditions: Table D-2, 3 days, read-out: NCI-H358 Prolif. EC50
Protocol: as §1, §2, §3, §4, §5, §6

[17] = system: A2058; conditions: Table D-1, 3 days, read-out: A2058 Prolif. EC50
Protocol: as §1, §2, §3, §4, §5, §6

Row | SMILES | EC50 ([1]; Homo sapiens, RKO, 72 h) [nM] | EC50 ([2]; Homo sapiens, SK-MEL-30, 72 h) [nM] | EC50 ([3]; Homo sapiens, LoVo, 72 h) [nM] | EC50 ([4]; Homo sapiens, SW-620, 72 h) [nM] | EC50 ([5]; Homo sapiens, NCI-H1755, 72 h) [nM] | EC50 [1] [nM] | EC50 [2] [nM] | EC50 [3] [nM] | EC50 [4] [nM] | EC50 [6] [nM] | EC50 [7] [nM] | EC50 [9] [nM] | EC50 [10] [nM] | EC50 [11] [nM] | EC50 [12] [nM] | EC50 [13] [nM] | EC50 [14] [nM] | EC50 [15] [nM] | EC50 [16] [nM] | EC50 [17] [nM] | also measured
1 | Cc1ccc2c(Nc3cccc(Cl)c3F)nccc2c1NC(=O)c1csc2c(N)ncnc12 [Belvarafenib, reference compound] | < 300 | < 300 | < 300 | 300 to 3000 | > 3000 |  |  |  |  |  |  |  |  |  |  |  |  |  |  |  | EC50 ([6]; Homo sapiens, HCT-116, 72 h): 300 to 3000 nM; EC50 ([7]; Homo sapiens, SW480, 72 h): 300 to 3000 nM; EC50 ([8]; Homo sapiens, IPC-298, 72 h): < 300 nM; EC50 ([9]; Homo sapiens, HepG2, 72 h): < 300 nM; EC50 ([10]; Homo sapiens, HT-29, 72 h): < 300 nM; EC50 ([11]; Homo sapiens, A-375, 72 h): < 300 nM; EC50 ([12]; Homo sapiens, NCI-H2122, 72 h): 300 to 3000 nM; EC50 ([13]; Homo sapiens, NCI-H2087, 72 h): < 300 nM; EC50 ([14]; Homo sapiens, MeWo, 72 h): 300 to 3000 nM; EC50 ([15]; Homo sapiens, Calu-6, 72 h): < 300 nM; EC50 ([16]; Homo sapiens, NCI-H358, 72 h): 300 to 3000 nM
2 | O=S(=O)(Nc1ccc(F)c(Nc2ncnc3cnc(-n4cnc5c(N6CCC7(CCCO7)CC6)cccc54)nc23)c1F)c1cccc(Cl)c1Cl [Example 129] |  |  |  |  |  | < 300 | < 300 | < 300 | 300 to 3000 | 300 to 3000 | 300 to 3000 | < 300 | < 300 | < 300 | 300 to 3000 | 300 to 3000 | < 300 | 300 to 3000 | < 300 | < 300 | EC50 [5]: 300 to 3000 nM; EC50 [8]: < 300 nM
3 | COc1ccc(S(=O)(=O)Nc2ccc(F)c(Nc3ncnc4cnc(-n5cnc6c(N)cccc65)nc34)c2F)c(C)c1Cl [Example 112] |  |  |  |  |  | < 300 | < 300 | < 300 | 300 to 3000 | 300 to 3000 | 300 to 3000 | < 300 | < 300 | < 300 | 300 to 3000 | 300 to 3000 | 300 to 3000 | 300 to 3000 | < 300 | < 300 | 
4 | Cc1c(F)cccc1S(=O)(=O)Nc1ccc(F)c(Nc2ncnc3cnc(-n4cc(C(=O)N(C)Cc5ccncc5)c5ccccc54)nc23)c1F [Example 98] |  |  |  |  |  | < 300 | < 300 | < 300 | 300 to 3000 | < 300 | 300 to 3000 | < 300 | < 300 | < 300 | 300 to 3000 | < 300 | < 300 | < 300 | < 300 | < 300 | EC50 [5]: < 300 nM; EC50 [8]: < 300 nM
5 | Cc1c(F)cccc1S(=O)(=O)Nc1ccc(F)c(Nc2ncnc3cnc(-n4cnc5c(-c6cccnc6)cccc54)nc23)c1F [Example 114] | < 300 | 300 to 3000 | < 300 | > 3000 | > 3000 |  |  |  |  |  |  |  |  |  |  |  |  |  |  |  | EC50 ([6]; Homo sapiens, HCT-116, 72 h): 300 to 3000 nM; EC50 ([7]; Homo sapiens, SW480, 72 h): > 3000 nM; EC50 ([8]; Homo sapiens, IPC-298, 72 h): < 300 nM; EC50 ([9]; Homo sapiens, HepG2, 72 h): < 300 nM; EC50 ([10]; Homo sapiens, HT-29, 72 h): < 300 nM; EC50 ([11]; Homo sapiens, A-375, 72 h): < 300 nM; EC50 ([12]; Homo sapiens, NCI-H2122, 72 h): > 3000 nM; EC50 ([13]; Homo sapiens, NCI-H2087, 72 h): 300 to 3000 nM; EC50 ([14]; Homo sapiens, MeWo, 72 h): 300 to 3000 nM; EC50 ([15]; Homo sapiens, Calu-6, 72 h): > 3000 nM; EC50 ([16]; Homo sapiens, NCI-H358, 72 h): < 300 nM; EC50 ([17]; Homo sapiens, A2058, 72 h): < 300 nM
